In brackets after ≈: the same amount, converted by molar mass. One block for each molecule: values may come before it.
Key:
Assay type in all cases: cell-based
[1] = tested on: P. aeruginosa clinical isolates; experiment: expanded MIC profiling, P. aeruginosa clinical isolates; conditions: Pseudomonas aeruginosa
Experimental: (§1) To evaluate the activity of selected example compounds against clinical isolates of target species, standard cell-based broth microdilution MIC assays were employed. A panel of 20 clinical isolates of P. aeruginosa and 20 clinical isolates of Methicillin Resistant S. aureus (MRSA) from Lankenau Medical Center (Wynnewood, Pa.) were used. In the set of P. aeruginosa isolates, the compounds were also tested in combination with a β-lactamase inhibitor (taniborbactam), to evaluate the potential benefit of inhibiting β-lactamase enzymes. The assay was conducted in Cation Adjusted Mueller Hinton Broth (CAMHB, BD #212322, BD Diagnostic Systems, Sparks, Md.). Bacteria strains were grown for 3-5 hours in CAMHB. Compounds were added to a microtiter plate in 2-fold serial dilutions in CAMHB. For plates receiving β-lactamase inhibitor, taniborbactam was added to obtain a final fixed concentration of 4 μg/mL. Once the test articles were added, the plates were inoculated according to CLSI broth microdilution method. After inoculation, the plates were incubated for 16-20 hours at 37° C. then the Minimal Inhibitory Concentration (MIC) of the test compound is determined visually. Values for concentration required to inhibit growth of […] (MIC50) and 90% (MIC90) of isolates were determined.

[2] = tested on: Methicillin Resistant S. aureus (MRSA) clinical isolates; experiment: expanded MIC profiling, MRSA clinical isolates; conditions: Staphylococcus aureus
Experimental: as §1

S. aureus USA 600 = experiment: broth microdilution MIC assay, S. aureus USA600; conditions: Staphylococcus aureus; S. aureus USA600 (MRSA); read-out: MIC, S. aureus USA600
Method in brief: (§2)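 Growth inhibition was measured by CLSI-based broth microdilution. Log-phase cultures in Mueller-Hinton broth with divalent cations were seeded at 5×10^5 CFU/mL into 2-fold serial compound dilutions and incubated 16-20 hours at 37° C before the MIC was scored by eye.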

[3] = tested on: P. aeruginosa 35151 (hyper-permeable strain); experiment: broth microdilution MIC assay, P. aeruginosa 35151; conditions: Pseudomonas aeruginosa, read-out: MIC, P. aeruginosa 35151
Method in brief: as §2

P. aeruginosa Paeβ-17 = experiment: broth microdilution MIC assay, P. aeruginosa Paeβ-17; conditions: Pseudomonas aeruginosa, read-out: MIC, P. aeruginosa Paeβ-17
Method in brief: as §2

[4] = tested on: E. coli ATCC 25922 (wild-type/QC strain); experiment: broth microdilution MIC assay, E. coli 25922; conditions: Escherichia coli, ATCC25922; read-out: MIC, E. coli 25922
Method in brief: as §2

[5] = tested on: S. aureus ATCC 33591 (methicillin-resistant); experiment: broth microdilution MIC assay, S. aureus 33591; conditions: Staphylococcus aureus, ATCC33591; S. aureus 33591, methicillin-resistant; read-out: MIC, S. aureus 33591
Method in brief: as §2

S. aureus USA 300 = experiment: broth microdilution MIC assay, S. aureus USA300; conditions: Staphylococcus aureus; S. aureus USA300 (MRSA); read-out: MIC, S. aureus USA300
Method in brief: as §2

[6] = tested on: P. aeruginosa ΔmexAB-OprM (an efflux pump knockout); experiment: broth microdilution MIC assay, P. aeruginosa ΔmexAB-OprM; conditions: Pseudomonas aeruginosa, read-out: MIC, P. aeruginosa ΔmexAB-OprM
Method in brief: as §2

[7] = tested on: P. aeruginosa ATCC 27853 (wild-type/QC strain); experiment: broth microdilution MIC assay, P. aeruginosa 27853; conditions: Pseudomonas aeruginosa, ATCC27853; read-out: MIC, P. aeruginosa 27853
Method in brief: as §2

[8] = panel of 20 P. aeruginosa clinical isolates
[9] = panel of S. aureus (MRSA) isolates of Table 5

- MIC ([1]; P. aeruginosa clinical isolate Lankenau 11): 1 µg/mL
- MIC ([1]; P. aeruginosa clinical isolate Lankenau 12): 0.5 µg/mL
- MIC ([1]; P. aeruginosa clinical isolate Lankenau 13): 1 µg/mL
- MIC ([1]; P. aeruginosa clinical isolate Lankenau 14): 0.5 µg/mL
- MIC ([1]; P. aeruginosa clinical isolate Lankenau 15): 1 µg/mL
- MIC ([1]; P. aeruginosa clinical isolate Lankenau 16): 0.5 µg/mL
- MIC ([1]; P. aeruginosa clinical isolate Lankenau 17): 1 µg/mL
- MIC ([1]; P. aeruginosa clinical isolate Lankenau 18): 0.5 µg/mL
- MIC ([1]; P. aeruginosa clinical isolate Lankenau 19): 1 µg/mL
- MIC ([1]; P. aeruginosa clinical isolate Lankenau 20): 0.5 µg/mL
- MIC ([1]; P. aeruginosa clinical isolate Lankenau 21): 1 µg/mL
- MIC ([1]; P. aeruginosa clinical isolate Lankenau 22): 0.5 µg/mL
- MIC ([1]; P. aeruginosa clinical isolate Lankenau 23): 0.5 µg/mL
- MIC ([1]; P. aeruginosa clinical isolate Lankenau 24): 4 µg/mL
- MIC ([1]; P. aeruginosa clinical isolate Lankenau 25): 0.5 µg/mL
- MIC ([1]; P. aeruginosa clinical isolate Lankenau 26): < 0.25 µg/mL
- MIC ([1]; P. aeruginosa clinical isolate Lankenau 27): 0.5 µg/mL
- MIC ([1]; P. aeruginosa clinical isolate Lankenau 28): 0.5 µg/mL
- MIC ([1]; P. aeruginosa clinical isolate Lankenau 29): 0.5 µg/mL
- MIC ([1]; P. aeruginosa clinical isolate Lankenau 30): 0.5 µg/mL
- MIC50 [1, 8]: 0.5 µg/mL
- MIC90 [1, 8]: 1 µg/mL
- MIC ([2]; ATCC 33591 / MRSA, S. aureus ATCC-33591): 32 µg/mL
- MIC ([2]; MRSA, S. aureus clinical isolate LH-SA3): 4 µg/mL
- MIC ([2]; MRSA, S. aureus clinical isolate LH-SA9): 4 µg/mL
- MIC ([2]; MRSA, S. aureus clinical isolate LH-SA23): 4 µg/mL
- MIC ([2]; MRSA, S. aureus clinical isolate LH-SA24): 4 µg/mL
- MIC ([2]; MRSA, S. aureus clinical isolate LH-SA26): 4 µg/mL
- MIC ([2]; MRSA, S. aureus clinical isolate LH-SA29): 16 µg/mL
- MIC ([2]; MRSA, S. aureus clinical isolate LH-SA33): 4 µg/mL
- MIC ([2]; MRSA, S. aureus clinical isolate LH-SA34): 8 µg/mL
- MIC ([2]; MRSA, S. aureus clinical isolate LH-SA37): 4 µg/mL
- MIC ([2]; MRSA, S. aureus clinical isolate LH-SA38): 32 µg/mL
- MIC ([2]; MRSA, S. aureus clinical isolate LH-SA39): 4 µg/mL
- MIC ([2]; MRSA, S. aureus clinical isolate LH-SA40): 4 µg/mL
- MIC ([2]; MRSA, S. aureus clinical isolate LH-SA41): 4 µg/mL
- MIC ([2]; MRSA, S. aureus clinical isolate LH-SA42): 8 µg/mL
- MIC ([2]; MRSA, S. aureus clinical isolate LH-SA44): 8 µg/mL
- MIC ([2]; MRSA, S. aureus clinical isolate LH-SA45): 16 µg/mL
- MIC ([2]; MRSA, S. aureus clinical isolate LH-SA48): 4 µg/mL
- MIC ([2]; MRSA, S. aureus clinical isolate LH-SA49): 4 µg/mL
- MIC ([2]; MRSA, S. aureus clinical isolate LH-SA50): 4 µg/mL
- MIC50 [2, 9]: 4 µg/mL
- MIC90 [2, 9]: 16 µg/mL
SMILES: C[C@@H](O)[C@H]1C(=O)N2C(C(=O)O)=C(S[C@@H]3CN[C@H](C(=O)N(C)C)C3)[C@H](C)[C@H]12 [Meropenem, reference compound]

SMILES: C[C@@H](O)[C@H]1C(=O)N2C(C(=O)O)=C(S[C@@H]3CCN(Cc4cnc(N)nc4)C3)[C@H](C)[C@H]12 [Example 24, (4R,5S,6S)-3-(((R)-1-((2-aminopyrimidin-5-yl)methyl)pyrrolidin-3-yl)thio)-6-((R)-1-hydroxyethyl)-4-methyl-7-oxo-1-azabicyclo[3.2.0]hept-2-ene-2-carboxylic acid]
- MIC (S. aureus USA 600): 1 to 4 µg/mL (≈ 2.38 to 9.54 µM)
- MIC [3]: < 1 µg/mL
- MIC (P. aeruginosa Paeβ-17): > 32 µg/mL
- MIC [4]: < 1 µg/mL
- MIC [5]: 8 to 32 µg/mL (≈ 19.1 to 76.3 µM)
- MIC (S. aureus USA 300): 1 to 4 µg/mL (≈ 2.38 to 9.54 µM)
- MIC [6]: 1 to 4 µg/mL (≈ 2.38 to 9.54 µM)
- MIC [7]: 8 to 32 µg/mL (≈ 19.1 to 76.3 µM)
